Key:
Plasmodium falciparum [1] = assay: Potency index, ratio of mefloquine IC50 to test compound IC50 for antimalarial activity against Plasmodium falciparum female gametocytes assessed as parasitic growth inhibition; format: functional
Plasmodium falciparum [2] = assay: Antimalarial activity against Plasmodium falciparum male gametocytes assessed as parasitic growth inhibition; format: functional, organism-based
Plasmodium falciparum [3] = assay: Potency index, ratio of artesunate IC50 to test compound IC50 for antimalarial activity against Plasmodium falciparum female gametocytes assessed as parasitic growth inhibition; format: functional
Plasmodium falciparum [4] = assay: Antimalarial activity against Plasmodium falciparum female gametocytes assessed as parasitic growth inhibition; format: functional, organism-based
Plasmodium falciparum [5] = assay: Antimalarial activity against Plasmodium falciparum male gametocytes assessed as parasitic growth inhibition by exflagellation assay; format: functional, organism-based
Plasmodium falciparum [6] = assay: Potency index, ratio of chloroquine IC50 to test compound IC50 for antimalarial activity against Chloroquine sensitive Plasmodium falciparum D6 assessed as parasitic growth inhibition; format: functional
Plasmodium falciparum [7] = assay: Antimalarial activity against Chloroquine sensitive Plasmodium falciparum D6 assessed as parasitic growth inhibition; format: functional, organism-based
Plasmodium falciparum [8] = assay: Antimalarial activity against Chloroquine resistant Plasmodium falciparum W2 assessed as parasitic growth inhibition; format: functional, organism-based
Plasmodium falciparum [9] = assay: Potency index, ratio of chloroquine IC50 to test compound IC50 for antimalarial activity against Chloroquine resistant Plasmodium falciparum W2 assessed as parasitic growth inhibition; format: functional

| SMILES | Ratio IC50 (Plasmodium falciparum [1]) | IC50 (Plasmodium falciparum [2]) [nM] | Ratio IC50 (Plasmodium falciparum [3]) | IC50 (Plasmodium falciparum [4]) [nM] | IC50 (Plasmodium falciparum [5]) [nM] | Ratio IC50 (Plasmodium falciparum [6]) | IC50 (Plasmodium falciparum [7]) [nM] | IC50 (Plasmodium falciparum [8]) [nM] | Ratio IC50 (Plasmodium falciparum [9]) |
| --- | --- | --- | --- | --- | --- | --- | --- | --- | --- |
| C[C@H]1[C@@H](OC(=O)CCC(=O)O)O[C@@H]2C[C@@]3(C)CC[C@H]4[C@H](C)CC[C@@H]1[C@@]24OO3.Cc1cccc2c(C(O)C3CCCCN3)cc(C(F)(F)F)nc12 (racemic) | 280 | 4600 | 15 | 20 | 17 |  |  |  |  |
| Cc1cc(NCCCCNc2ccnc3cc(Cl)ccc23)nc(Nc2ccc(C(=O)N3CCOCC3)cc2)n1 |  |  |  |  |  | 11 | 32 | 33 | 11 |

Source: ChEMBL document CHEMBL5329153, “Is structural hybridization invoking new dimensions for antimalarial drug discovery research?” (RSC Med Chem, 2023)
